# Measurements reported in publication PMC4603303, “Activity of Novel Synthetic Peptides against Candida albicans” (Scientific Reports, 2015).
# Like-named read-outs stand apart in the source and are kept apart here. Ends that are not written are not given here.
# Legend:
# human erythrocytes = assay: Haemolytic assay; assay type: cell-based
# Procedure: Freshly collected human blood with heparin was centrifuged to remove the buffy coat. The erythrocytes were washed three times with PBS, centrifuged for 10 min at 2000 rpm at 10°C, and resuspended in PBS to 4% (vol/vol). […] PBS and 0.1% Triton X-100 were used as agents to induce 0 and 100% haemolysis, respectively. Plates were incubated for 1 hour at 37°C and centrifuged at 2000 rpm for 10 min. The supernatant (100 μL) was transferred to a 96-well flat-bottomed polystyrene plate, and the release of haemoglobin was monitored by measuring the absorbance at 560 nm using a microplate reader. Results were repeated three times and each time in duplicate. The percentage of haemolysis was calculated using the following formula: [drawing 2] where Ap and A100 represent the absorbance of erythrocytes treated with peptide and 0.1% Triton X-100. A0 is the absorbance of erythrocytes without treatment.
# C. albicans SC5314 = assay: Time killing assay; assay type: cell-based, Candida albicans
# Procedure: A fungal suspension was adjusted to a 0.5 McFarland turbidity standard with cell density of 1 × 10^6 to 5 × 10^6 cells/ml. 100 μL of adjusted yeast suspension was exposed to 900 μL of RPMI medium containing peptide, yielding a starting inoculum of approximately 10^5 cells/ml. The solutions were incubated at 37°C with agitation. At the predetermined time interval of 0, 1, 2, 4 and 6 hours, 10 μL or 30 μL of the samples were removed, serially diluted with phosphate-buffered saline (PBS) and plated on SDA plates to allow colony counts after 24 hours of incubation. Controls for yeast growth and antifungal agents were also performed. The lower limit of accurate and reproducible quantitation was 100 CFU/ml. Results were obtained from three independent experiments.
# Candida krusei ATCC 6258 = assay: MIC, broth microdilution (CLSI M27-A2); assay type: cell-based
# Procedure: (§1) C. albicans strains SC5314 and ATCC 90028, C. krusei ATCC 6258 and C. parapsilosis ATCC 22019 were used in the study. The strains were stored at −80°C in nutrient broth supplemented with 2.0% glycerol stock. Prior to experimentation, each strain was streaked for single colonies on Sabouraud Dextrose (SDA) agar plates and incubated overnight at 37°C.
# (§2) Antifungal activity of the designed peptides was determined according to a standardized broth microdilution method (Clinical and Laboratory Standards Institute (CLSI) document M27-A2). Briefly, the yeast colonies from 24- hour-old cultures of Candida species were picked and resuspended in 5 mL of sterile 0.145 mol/L saline and adjusted to cell density of 1 × 10^6 to 5 × 10^6 cells/ml. The yeast stock suspension was then diluted to obtain a starting inoculum of 5.0 × 10^2 to 2.5 × 10^3 cells/ml. […] The drugs were dissolved in DMSO and prepared to a stock concentration of 25 mg/L and 50 mg/L, respectively. […] 100 μL of standardized yeast suspension was then added to each well. Plates were incubated for 48 hours at 37°C. The minimum inhibitory concentration (MIC) was defined as the lowest concentration that inhibited 90% growth of Candida species. The MICs were determined three times and each time in duplicate.
# Candida albicans SC 5314 = assay: MIC, broth microdilution (CLSI M27-A2); assay type: cell-based
# Procedure: as §1, §2
# [1] = test system: Candida parapsilosis ATCC 22019; assay: MIC, broth microdilution (CLSI M27-A2); assay type: cell-based
# Procedure: as §1, §2
# [2] = test system: Candida albicans ATCC 90028; assay: MIC, broth microdilution (CLSI M27-A2); assay type: cell-based
# Procedure: as §1, §2
# Candida strains = assay: MIC, broth microdilution, range stated over several Candida strains; assay type: cell-based, Candida spp.
# Procedure: as §1, §2
# Het-1A cell line = assay: cells
# Procedure: (§3) The human normal vaginal epithelial cell line VK2/E6E7 (ATCC® CRL-2616™) and human normal esophagus epithelial cell line Het-1A (ATCC® CRL-2692™) were used for cytotoxicity testing. VK2/E6E7 cell line was grown in Keratinocyte-Serum Free medium (GIBCO-BRL 17005-042) supplemented with 0.1 ng/ml human recombinant EGF, 0.05 mg/ml bovine pituitary extract, and 44.1 mg/L calcium chloride. […] Cell viability was measured by using CellTiter 96® Aqueous Non-Radioactive Cell Proliferation Assay (Promega, USA) and the colourimetric changes were determined at 490 nm using a microplate reader. […] Results were recorded by averaging three repeated experiments and each experiment was performed in duplicate.
# VK2/E6E7 cell line = assay: cells
# Procedure: as §3
Substance,"Haemolytic activity HC10 (human erythrocytes; red cells of human, 1 h)","Haemolytic activity HC50 (human erythrocytes; red cells of human, 1 h)","% killing (C. albicans SC5314; SC5314, 6 h, 2)","mean log decrease in viable cells (C. albicans SC5314; SC5314, 6 h, 2)","Minimum Inhibitory Concentration (MIC) (Candida krusei ATCC 6258; ATCC 6258, 48 h)","Minimum Inhibitory Concentration (MIC) (Candida albicans SC 5314; SC 5314, 48 h)","Minimum Inhibitory Concentration (MIC) ([1]; ATCC 22019, 48 h)","Minimum Inhibitory Concentration (MIC) ([2]; ATCC 90028, 48 h)",IC50 (Het-1A cell line; 24 h),IC50 (Het-1A cell line; 48 h),IC50 (Het-1A cell line; 72 h),IC50 (VK2/E6E7 cell line; 24 h),IC50 (VK2/E6E7 cell line; 48 h),IC50 (VK2/E6E7 cell line; 72 h),"MIC values, range (Candida strains; 48 h)",further results
"GIWKKWIKKWLKKLLKKLWKKG-NH2 [KABT-AMP, reference compound]",–,–,–,–,–,–,–,–,–,–,–,–,–,–,–,"Haemolytic activity HC10 (human erythrocytes; concentration causing 10% haemolysis, 1 hour, 37°C, erythrocyte suspension 4% in PBS, three times in duplicate): 4.67 ± 2.09 mg/L; Haemolytic activity HC50 (human erythrocytes; concentration causing 50% haemolysis, 1 hour, 37°C, erythrocyte suspension 4% in PBS, three times in duplicate): 81.23 ± 8.92 mg/L; % killing (C. albicans SC5314; 2× MIC, within 4 hours): > 99.99%; mean log decrease in viable cells (C. albicans SC5314; 2× MIC, within 4 hours, RPMI, 37°C, mean ± SD of three experiments): 5.4 ± 0.09 log CFU/mL; Minimum Inhibitory Concentration (MIC) (Candida krusei ATCC 6258; C. krusei ATCC 6258, RPMI 1640-MOPS, 48 h, 37°C, lowest concentration inhibiting 90% growth, three times in duplicate): 64 µg/mL; Minimum Inhibitory Concentration (MIC) (Candida albicans SC 5314; C. albicans SC 5314, RPMI 1640-MOPS, 48 h, 37°C, lowest concentration inhibiting 90% growth, three times in duplicate): 32 µg/mL; Minimum Inhibitory Concentration (MIC) ([1]; C. parapsilosis ATCC 22019, RPMI 1640-MOPS, 48 h, 37°C, lowest concentration inhibiting 90% growth, three times in duplicate): 64 µg/mL; Minimum Inhibitory Concentration (MIC) ([2]; C. albicans ATCC 90028, RPMI 1640-MOPS, 48 h, 37°C, lowest concentration inhibiting 90% growth, three times in duplicate): 64 µg/mL; MIC values, range (Candida strains; range against four Candida strains (C. albicans and non-albicans species)): 32 to 64 µg/mL"
GIWKKWIKKVVNVLKNLF-NH2 [KU1],8.07 ± 1.60 mg/L,58.19 ± 2.04 mg/L,99.82%,2.95 ± 0.59 log CFU/mL,32 µg/mL,16 µg/mL,16 µg/mL,32 µg/mL,3.61 ± 0.19 µg/mL,4.59 ± 0.26 µg/mL,7.27 ± 1.17 µg/mL,4.28 ± 0.60 µg/mL,4.71 ± 0.22 µg/mL,7.84 ± 1.99 µg/mL,16 to 32 µg/mL,–
GVIKAAKKVVKVLKKLF-NH2 [Upn-lys6],>256 mg/L,>256 mg/L,–,–,32 µg/mL,32 µg/mL,16 µg/mL,64 µg/mL,7.49 ± 1.77 µg/mL,7.92 ± 1.22 µg/mL,11.20 ± 0.86 µg/mL,9.07 ± 1.92 µg/mL,10.04 ± 3.27 µg/mL,9.87 ± 1.46 µg/mL,–,"% killing (C. albicans SC5314; SC5314, 4 h, 2): > 99.99%; mean log decrease in viable cells (C. albicans SC5314; SC5314, 4 h, 2): 5.56 ± 0.07 log CFU/mL; MIC values, range (Candida strains; range against C. albicans and C. krusei): 32 to 64 µg/mL"
GIWKKWIKKWLKKLKNLF-NH2 [KU4],49.38 ± 5.14 mg/L,–,> 99.99%,5.55 ± 0.08 log CFU/mL,16 µg/mL,32 µg/mL,32 µg/mL,64 µg/mL,9.75 ± 1.34 µg/mL,10.47 ± 0.50 µg/mL,14.53 ± 1.58 µg/mL,8.75 ± 1.04 µg/mL,10.55 ± 2.33 µg/mL,19.46 ± 4.29 µg/mL,16 to 64 µg/mL,Haemolytic activity HC50 (human erythrocytes): > 256 mg/L
GIWKKWIKKWLKVLKNLF-NH2 [KU3],5.65 ± 0.85 mg/L,55.20 ± 11.90 mg/L,99.94%,3.28 ± 0.30 log CFU/mL,16 µg/mL,8 µg/mL,8 µg/mL,16 µg/mL,4.33 ± 0.52 µg/mL,4.62 ± 0.65 µg/mL,6.36 ± 1.34 µg/mL,4.43 ± 0.39 µg/mL,5.32 ± 0.84 µg/mL,7.83 ± 1.41 µg/mL,8 to 16 µg/mL,–
